The structures appear in SMILES notation. Activity calls are given as the source filed them. No cut-off for these calls is given here.

Experiment [1] relates to RPMI-8226. The experiment can be described thus: Cytotoxicity against human RPMI8226 cells assessed as cell viability after 72 hrs by MTT assay. The experiment is classed as functional, cell-based. The conditions noted are these: for IC50: RPMI-8226, 72 h. In general terms: Tetrazolium assays rely on reduction of a dye to a coloured formazan, in cell work by metabolically active cells.

Experiment [2] in a line: Binding affinity to sigma-2 receptor in human MCF7 cells. The experiment is classed as cell-based.
Experiment [3] is described as follows: Binding affinity to sigma-2 receptor in rat liver homogenates. The experiment is classed as tissue-based.
Experiment [4] can be described thus: Selectivity ratio of Ki for sigma-2 receptor in rat liver homogenates to Ki for sigma-1 receptor in guinea pig brain homogenates. The experiment is classed as tissue-based.
Experiment [5] has as its system RPMI-8226. The experiment can be described thus: Selectivity ratio of Ki for sigma-2 receptor in human RT4 cell homogenates to Ki for sigma-1 receptor in human RPMI8226 cells. The experiment is classed as cell-based.
Experiment [6] has as its system RPMI-8226. The experiment can be described thus: Induction of apoptosis in human RPMI8226 cells at 23 uM after 6 hrs by annexin V-FITC/propidium iodide staining-based flow cytometric analysis. The experiment is classed as functional, cell-based. Background: In flow cytometry, cells or beads pass a laser one at a time.
Experiment [7] relates to RPMI-8226. Nature of the experiment: Induction of autophagy in human RPMI8226 cells assessed as […] protein expression at 23 uM after 48 hrs by Western blotting analysis in presence of 3-methyladenine. The experiment is classed as functional, cell-based. Background: Immunoblotting shows a protein as a band on a membrane.
The target of experiment [8] is Sigma non-opioid intracellular receptor 1 (Homo sapiens, UniProt Q99720). Nature of the experiment: Displacement of [3H]-(+)-pentazocine from sigma-1 receptor in human RPMI8226 cells. The experiment is classed as cell-based, RPMI-8226.
Experiment [9] concerns RPMI-8226. Nature of the experiment: Induction of apoptosis in human RPMI8226 cells assessed as caspase-3 activation at 23 uM by flow cytometric analysis in presence of […]. The experiment is classed as functional, cell-based. The conditions noted are these: TDE = time-dependent effect.
The test system of experiment [10] is RPMI-8226. Nature of the experiment: Induction of apoptosis in human RPMI8226 cells assessed as early/late apoptotic cells at 23 uM after 48 hrs by annexin V/propidium iodide staining-based flow cytometric analysis in presence of alpha-tocopherol. The experiment is classed as functional, cell-based.
The target of experiment [11] is Sigma non-opioid intracellular receptor 1 (Cavia porcellus, UniProt Q60492). Nature of the experiment: Displacement of [3H]-(+)-pentazocine from sigma-1 receptor in guinea pig brain homogenates. The experiment is classed as tissue-based.
Experiment [12] relates to RPMI-8226. The experiment can be described thus: Induction of reactive oxygen species generation in human RPMI8226 cells at 23 uM after 0.5 to 24 hrs by DCFDA dye-based flow cytometric analysis. The experiment is classed as functional, cell-based.
Experiment [13] deals with RPMI-8226. The experiment can be described thus: Induction of apoptosis in human RPMI8226 cells assessed as early apoptotic cells at 23 uM after 24 to 48 hrs by annexin V/propidium iodide staining-based flow cytometric analysis in presence of alpha-tocopherol. The experiment is classed as functional, cell-based.
Experiment [14] relates to RPMI-8226. The experiment can be described thus: Induction of apoptosis in human RPMI8226 cells assessed as decrease in mitochondrial membrane potential at 23 uM by JC-1 staining-based flow cytometric analysis. The conditions noted are these: TDE = time-dependent effect. The experiment is classed as functional, cell-based.
Experiment [15] has as its system RPMI-8226. Nature of the experiment: Induction of apoptosis in human RPMI8226 cells assessed as chromatin condensation at 23 uM after 24 to 48 hrs by DAPI staining-based fluorescence microscopic analysis. The experiment is classed as functional, cell-based.
In experiment [16] the test system is RPMI-8226. The experiment can be described thus: Induction of apoptosis in human RPMI8226 cells assessed as caspase-8 activation at 23 uM by flow cytometric analysis in presence of FITC-IETD-FMK. The conditions noted are these: TDE = time-dependent effect. The experiment is classed as functional, cell-based.
Experiment [17] has as its system RPMI-8226. The experiment can be described thus: Induction of autophagy in human RPMI8226 cells assessed as […] protein level at 23 uM after 6 to 96 hrs by Western blotting analysis in presence of alpha-tocopherol. The experiment is classed as functional, cell-based.
A short description of experiment [18]: Displacement of [3H]-DTG from sigma-2 receptor in human RT4 cell homogenates in presence of (+)-pentazocine. The experiment is classed as tissue-based. The conditions noted are these: rt-4.
Experiment [19] has as its system RPMI-8226. The experiment can be described thus: Induction of lipid peroxidation in human RPMI8226 cells at 23 uM after 5 to 24 hrs by flow cytometric analysis. The experiment is classed as functional, cell-based.
Experiment [20] has as its system RPMI-8226. Nature of the experiment: Induction of autophagy in human RPMI8226 cells assessed as p62 protein expression at 23 uM after 6 to 96 hrs by Western blotting analysis. The experiment is classed as functional, cell-based.
The test system of experiment [21] is RPMI-8226. Nature of the experiment: Induction of apoptosis in human RPMI8226 cells assessed as caspase-9 activation at 23 uM by flow cytometric analysis in presence of […]. The experiment is classed as functional, cell-based. The following applies: TDE = time-dependent effect.
Experiment [22] concerns RPMI-8226. Nature of the experiment: Induction of autophagy in human RPMI8226 cells assessed as […] protein expression at 23 uM after 48 hrs by Western blotting analysis in presence of wortmannin. The experiment is classed as functional, cell-based.
Experiment [23] relates to RPMI-8226. Nature of the experiment: Induction of autophagy in human RPMI8226 cells assessed as p62 protein expression at 23 uM after 48 hrs by Western blotting analysis in presence of wortmannin. The experiment is classed as functional, cell-based.
Experiment [24] concerns RPMI-8226. The experiment can be described thus: Induction of autophagy in human RPMI8226 cells assessed as p62 protein level at 23 uM after 6 to 96 hrs by Western blotting analysis in presence of alpha-tocopherol. The experiment is classed as functional, cell-based.
In experiment [25] the test system is RPMI-8226. Nature of the experiment: Induction of autophagy in human RPMI8226 cells assessed as p62 protein expression at 23 uM after 48 hrs by Western blotting analysis in presence of 3-methyladenine. The experiment is classed as functional, cell-based.
Experiment [26] concerns RPMI-8226. The experiment can be described thus: Induction of apoptosis in human RPMI8226 cells assessed as early apoptotic cells at 23 uM after 48 hrs by annexin V-FITC/propidium iodide staining-based flow cytometric analysis. The experiment is classed as functional, cell-based.
In experiment [27] the test system is RPMI-8226. The experiment can be described thus: Induction of autophagy in human RPMI8226 cells assessed as […] at 23 uM by Western blotting analysis. The experiment is classed as functional, cell-based. The following applies: TDE = time-dependent effect.
Experiment [28] concerns RPMI-8226. The experiment can be described thus: Induction of apoptosis in human RPMI8226 cells assessed as increase in apoptotic cells at 23 uM after 24 to 48 hrs by annexin V-FITC/propidium iodide staining-based flow cytometric analysis. The experiment is classed as functional, cell-based.
The test system of experiment [29] is RPMI-8226. Nature of the experiment: Induction of lipid peroxidation in human RPMI8226 cells at 23 uM after 5 to 24 hrs by flow cytometric analysis in presence of alpha-tocopherol. The experiment is classed as functional, cell-based.
For experiment [30], the system named is HL-60. Nature of the experiment: Cytotoxicity against human HL60 cells assessed as cell viability at 20 uM after 72 hrs by MTT assay. The experiment is classed as functional, cell-based.
The test system of experiment [31] is RPMI-8226. The experiment can be described thus: Induction of apoptosis in human RPMI8226 cells assessed as early apoptotic cells at 23 uM after 48 hrs by annexin V-FITC/propidium iodide staining-based flow cytometric analysis in presence of wortmannin. The experiment is classed as functional, cell-based.
A short description of experiment [32]: Displacement of [3H]-DTG from sigma-2 receptor in rat liver homogenates in presence of (+)-pentazocine. The experiment is classed as tissue-based.

Sigma non-opioid intracellular receptor 1 (Cavia porcellus, UniProt Q60492), sequence (Q60492 whole entry): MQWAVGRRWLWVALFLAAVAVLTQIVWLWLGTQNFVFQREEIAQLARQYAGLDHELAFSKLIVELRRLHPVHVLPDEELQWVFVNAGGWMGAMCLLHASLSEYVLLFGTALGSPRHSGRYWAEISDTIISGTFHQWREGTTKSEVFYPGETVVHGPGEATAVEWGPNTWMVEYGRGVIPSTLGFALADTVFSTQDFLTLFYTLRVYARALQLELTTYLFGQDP
Sigma non-opioid intracellular receptor 1 (Homo sapiens, UniProt Q99720), sequence (Q99720 whole entry): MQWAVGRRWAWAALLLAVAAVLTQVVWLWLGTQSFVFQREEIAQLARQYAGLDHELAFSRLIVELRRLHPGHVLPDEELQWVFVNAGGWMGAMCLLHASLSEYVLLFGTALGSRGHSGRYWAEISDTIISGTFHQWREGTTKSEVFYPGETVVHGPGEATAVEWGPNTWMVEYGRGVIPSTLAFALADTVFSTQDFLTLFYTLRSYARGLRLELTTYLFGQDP

`COc1cccc2c1CCCC2CCCN1CCN(C2CCCCC2)CC1` (stereo not given): the IC50 (in general, the concentration that gives 50% inhibition) in [1] turned out to be 9290 nM. Besides, the inhibition constant (Ki) (usually a measure of affinity in units of concentration, obtained from inhibition or displacement) in [2] amounted to 0.28 nM.

In experiment [3], `COc1ccc(CN2CCN(Cc3ccccc3)[C@@H](CO)C2)cc1` gave a Ki of 70 nM. Besides, in experiment [4], the Ratio Ki worked out at 5.8.

For the compound `OCC[C@@H]1CN(CC2CCCCC2)CCN1Cc1ccc(-c2ccccc2)cc1`, the values for the Ratio Ki in [5] and in experiment [4] were 1.3 and 4.5, respectively. The result in [6], in [10], in [12], in experiment [13], in experiment [17] and in [20] was inactive. Besides, the result in experiment [23], in experiment [24], in experiment [25], in experiment [29] and in [30] was inactive. Besides, the outcome in experiment [7], in [15], in [19], in [22], in [26] and in experiment [28] was Active. Moreover, the outcome in experiment [31] was Active. Further, the Ki in experiment [8] stood at 29 nM; in experiment [11], 7.8 nM; in [18], 39 nM; in experiment [32] it was 38 nM. In addition, the Activity result was “tde” in experiment [9]; “Dose-dependent effect” in experiment [1]; “tde” in [14]; “tde” in experiment [16]; “tde” in [21]; “tde” in [27]. For the same compound, the half-inhibitory concentration (IC50) in experiment [1] came out at 13000 nM.
